Key:
[1] = system: PMA-stimulated TGFα release from HEK-293 cells (substrate of iRhom1/ADAM17 and iRhom2/ADAM17); assay: Counter screen (Example 4b): PMA-stimulated TGFα release from HEK-293 cells, AP readout; type: cell-based; conditions: Homo sapiens, HEK293, HEK-293 cells expressing TGFα-AP, PMA 100 ng/mL, 2 h
Description: A tertiary counterscreen was also performed to monitor the release of TGFα, which is a substrate of iRhom1/ADAM17 and iRhom2/ADAM17, so its release should not be blocked by an iRhom2-selective inhibitor (Maretzky T et al. (July 2013), “iRhom2 controls the substrate selectivity of stimulated ADAM117-dependent ectodomain shedding”, PNAS 110(28): 11433-11438; and Li X et al. (May 2015), “iRhoms 1 and 2 are essential upstream regulators of ADAM17-dependent EGFR signaling”, PNAS 112(19): 6080-6085).
(§1) Expression plasmids for alkaline phosphatase (AP)-fused human KL2 and TGFα had been previously designed and generated through gene synthesis followed by subcloning into the pcDNA3.1(+)/Hygro expression vector. […] Subsequently, DNA amplifications were performed to obtain sufficient amounts of the expression vectors. The quality of DNA and gene sequences were confirmed through restriction digest and Sanger sequencing. In parallel, cell culture of HEK-293 cells was initiated. Master and working cell banks were prepared, scaled up and transfected with the respective constructs by electroporation. During cell culturing, cell density and viability were monitored to ensure optimal conditions for the transfections. After PMA stimulation, AP-coupled KL2 or TGFα were detected by measurement of AP activity in the supernatant.
(§2) After electroporation, cells were further cultured in presence of selection antibiotics, hygromycin B, to generate stably transfected polyclonal cell pools. For both assays, KL2 and TGFα shedding, the respective selected pool turned out to be suitable. Final assay conditions were determined for the selected pools. For all experiments, batimastat (BB94, 10 μM) was used as positive control for full inhibition of KL2 or TGFα shedding.
(§3) The wells of sterile 384-well flat bottom clear plates for TGF-AP assays were coated with 10 μL of 0.1 mg/mL poly-d-lysine for 3-4 hr at 25° C. or overnight at 4° C., then washed 2× with PBS and patted dry. 60 μL of cells (20,000/well) were added to the sterile 384-well plate and incubated in Optimem (with 2% FCS and 1% Pen-strep) overnight at 37° C. (5% CO2). After incubation overnight, 55 μL medium were removed with a BioTek EL406 and 10 μL of prediluted compounds were added to the cells for a final concentration of 20 μM. After incubation for 15 min, 15 μL of PMA (100 ng/mL final conc.) were added. The cells were incubated for 2 h at 37° C. (5% CO2). Then, the plates were centrifuged for 5 min at 1000 rpm and 12 μL of the supernatant was transferred to a fresh 384 well plate. 12 μL of pNPP p-nitrophenyl phosphate (final 1 M pNPP) was added. AP reaction was performed for 1 h at 37° C. The reaction was stopped by addition of 12 μL of NaOH (1 M final conc.), the plates were centrifuged to remove air bubbles and the absorbance of pNP was measured at 405 nm.

[2] = system: PMA-stimulated KL2 release from HEK-293 cells (iRhom2/ADAM17 selective substrate); assay: Secondary screen (Example 3b): PMA-stimulated KL2 release from HEK-293 cells, AP readout; type: cell-based; conditions: Homo sapiens, HEK293, HEK-293 cells expressing KL2-AP, PMA 100 ng/mL, 2 h, read-out: Secondary Screen IC50 KitL2
Description: Two separate screens to identify novel small molecule inhibitors of iRhom2/ADAM17 activity were developed. […] Therefore, the primary screen for small molecule inhibitors of iRhom2/ADAM17 was a screen for inhibitors that blocked the release of TNFα from LPS-stimulated THP-1 human myeloid cells, a process that depends on iRhom2 and ADAM17. Since the release of TNFα from THP-1 cells can be blocked at many stages of the LPS/TLR4/iRhom2/ADAM17 pathway, a secondary screen was performed for another iRhom2/ADAM17 selective substrate, Kit-ligand 2 (KL-2) (Maretzky T et al. (July 2013), “iRhom2 controls the substrate selectivity of stimulated ADAM17-dependent ectodomain shedding”, PNAS 110(28): 11433-11438) in a different human cell type, human embryonic kidney cells (HEK 293).
as §1, §2
as §3, with “for KL2-AP” for “for TGF-AP”, “cells (40,000/well)” for “cells (20,000/well)”, “and 3” for “and 12”, “well plate and 9 μL of AP Balance Buffer was added per well.” for “well plate.”

Compound | IC50 [1] | IC50 [2]
Cc1c(C(=O)NCc2cccs2)sc(=O)n1Cc1ccccc1 [Compound 4] | > 40 µM | > 40 µM
O=C(c1c(Cl)cccc1Cl)N1CCC(Cc2ccc(F)cc2)CC1 [Compound 3] | > 40 µM | > 40 µM
Cc1c(C(=O)NCc2cccs2)sc(=O)n1Cc1ccccc1F [Compound 5] | > 40 µM | > 40 µM
Cc1c(C(=O)NCc2ccco2)sc(=O)n1Cc1ccccc1F [Compound 7] | > 40 µM | 22 µM

Reference: patent US20260242359A1, “IRHOM2 INHIBITORS AND USES THEREOF” (NEW YORK SOCIETY FOR THE RELIEF OF THE RUPTURED AND …, priority 2023, published 2026)
